Data set [1] in a line: Population compartmental pharmacokinetic modelling of olanzapine and DMO.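 Also: pharmacokinetic model fitted to concentration-time data, with between-animal variability described exponentially, residual error proportional, and effect of LPS injection assessed on clearance and distribution volumes.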
Method: (§3) The individual values of the pharmacokinetic parameters were obtained as empirical Bayes estimates.
(§4) In the second step, the concentration-time data after the intravenous administration of DMO were modelled to assess distribution and elimination of the metabolite. […] The PK parameters of DMO were fixed to the values estimated after a single IV dose of the metabolite. […] The goodness-of-fit achieved by the pharmacokinetic models was assessed with the help of the objective function value and diagnostic plots of 1/observed and predicted concentrations vs. time, 2/ observed vs. individually predicted concentrations, 3/ weighted residuals vs. time and 4/ weighted residuals vs. predicted concentrations. Finally, the mean prediction errors and the mean absolute prediction errors were calculated.
(§5) The between-animal variability in model parameters were described by an exponential model and a proportional model was used to describe the residual variability.
Data set [2] can be described thus: Rapid equilibrium dialysis, protein binding in plasma. The class given is in vitro ADME. The settings on record: C57BL/6N, mouse, plasma (pooled samples from the study mice), mean (range). The procedure:
Plasma samples collected from individual mice at each time point were pooled into composite samples due to insufficient sample volumes for performing RED. Similarly, brain homogenate samples from individual time points were pooled. RED was performed according to the manufacturer’s protocol (for details, see the Supplementary Materials). The free drug fraction in plasma was calculated by using Equation 1:
Rapid Equilibrium Dialysis. Briefly, 50 µL of drug-spiked plasma or 100 µL of 10-fold diluted brain homogenates were added to the sample chambers of the RED device, while 300 µL or 350 µL of phosphate-buffered saline (PBS, pH at 7.4) were added to the corresponding buffer chambers. Each pooled sample was analysed in triplicate. Control samples consisting of plasma and brain homogenates from the study, spiked with clozapine and trazodone at a target concentration of 100 ng/mL, were analysed in each measurement series. Each plate was sealed with aluminium foil and incubated at 37 ± 1 °C with an agitation at 350 rpm on an orbital shaker (Randox PHMP, Grant Instruments Ltd, Shepreth, Cambridgeshire, England) for 4 hours. After incubation, a matrix-matching procedure was performed: 10 µL of each post-dialysis sample was mixed with an equal volume of PBS, while 10 µL of each buffer sample was mixed with the corresponding blank plasma or brain homogenate. […]
On the technique in general: In equilibrium dialysis only unbound substance equilibrates across the membrane.

The conditions of data set [3]: protonated form; no reference given; cited from earlier work.
The nature of another data set: in vivo. The settings on record: for AUC(0-t): plasma, AUCt plasma, mean (95% CI). How it is done: (§1) After a 1-week acclimation period, the mice were randomly assigned to 2 experimental groups of 36 animals each: (1) an LPS group was given a single 4 mg/kg intraperitoneal (IP) injection of lipopolysaccharide (LPS), serotype O55:B05 (Sigma) and (2) a control group received a vehicle (sterile phosphate-buffered saline). […] The volume load for mice weighing 25 g was 125 µL. […] The doses of DMSO and MC were 276 and 25 mg/kg. […] Sampling was performed at 2 intervals in each of the 18 mice injected with LPS and 18 controls. The first blood volume of 150 µL was taken into an EDTA-microvette CB 300 (Sardstedt) from a drop of blood after a small incision at the end of the tail. At the termination interval, the second blood sample was collected by cardiac puncture in terminal anesthesia, and then the animal was put to death by decapitation. […] The injected volume was 1 mL/kg, that is, 25 µL for a 25 g mouse. […] The injected volume was 2.5 mL/kg, that is, […]. After IV administrations, blood was sampled at 3, 5, 10, 20, and 40 minutes, and 1, 1.5, 2, 3, 4, and 6 hours. Blood samples were taken at 3 intervals in each mouse. The first 2 samples of 75 µL each were taken from the retroorbital plexus under brief anesthesia and the third terminal sample was described for oral dosing. Plasma samples were obtained from whole blood by centrifugation at 2000 × g for 5 minutes at 4°C. Whole brain, liver, and intestine were excised and immediately frozen in liquid nitrogen. All samples were stored at −80°C until analysis.
(§2) Details of the analysis can be found in the Supplementary Materials.
The calculation of the point estimate and the 95% bootstrap t-confidence interval for AUCt was performed with the help of the R-package PK (https://cran.r-project.org/web/packages/PK/index.html). Total brain-to-plasma drug partition coefficient (Kp,brain) and unbound brain-to-unbound plasma partition coefficient (Kp,uu, brain) were calculated using Equations 3 and 4: […]

For data set [4] the following is noted: C57BL/6N, mouse, in vivo.
Method: as §3, §4, §5
A short description of data set [5]: Brain penetration (brain homogenate AUCt, Kp,brain, Kp,uu,brain). The settings on record: for Kp uu / Kp: C57BL/6N, mouse, brain, 0.5 mg/kg; for Kp uu: Kp,uu,brain; for Kp: Kp,brain; for AUCt brain homogenate: 4 mg/kg PO OL, t = 24 hours, mean (95% CI); for animals with brain homogenate concentration below the detection limit of 0.20 ng/g: PO olanzapine. The procedure: as §1, §2
The calculation of the point estimate and the 95% bootstrap t-confidence interval for AUCt was performed with the help of the R-package PK (https://cran.r-project.org/web/packages/PK/index.html). Total brain-to-plasma drug partition coefficient (Kp,brain) and unbound brain-to-unbound plasma partition coefficient (Kp,uu, brain) were calculated using Equations 3 and 4:
Kp,brain=AUCt,brain/AUCt,plasma
Kp, uu,brain=fu,brain × AUCt,brain/fu, plasma × AUCt,plasma

Data set [6] is described as follows: Rapid equilibrium dialysis, binding in brain homogenates. The class given is in vitro ADME, mice. As to conditions: C57BL/6N, mouse; for fraction unbound at 4 h: mean (range), pooled samples, read-out: unbound fraction in the brain homogenate; for fraction unbound at 4 h, 100 ng/mL: pH 7.4, RED control samples spiked at 100 ng/mL, range, read-out: unbound fraction in brain homogenate, control samples. How it is done: Plasma samples collected from individual mice at each time point were pooled into composite samples due to insufficient sample volumes for performing RED. Similarly, brain homogenate samples from individual time points were pooled. RED was performed according to the manufacturer’s protocol (for details, see the Supplementary Materials). The free drug fraction in plasma was calculated by using Equation 1: […]
The free drug fraction in the brain homogenate was determined by using Equation 2, which accounts for the effect of tissue dilution on the unbound fraction:
fu,brain=1/D/(1/fu,diluted−1)+1/D
were D is the dilution factor in the brain homogenate and the fu,diluted associated free fraction determined as the ratio of concentrations in the buffer versus the diluted brain tissue.
Rapid Equilibrium Dialysis. Briefly, 50 µL of drug-spiked plasma or 100 µL of 10-fold diluted brain homogenates were added to the sample chambers of the RED device, while 300 µL or 350 µL of phosphate-buffered saline (PBS, pH at 7.4) were added to the corresponding buffer chambers. Each pooled sample was analysed in triplicate. Control samples consisting of plasma and brain homogenates from the study, spiked with clozapine and trazodone at a target concentration of 100 ng/mL, were analysed in each measurement series. Each plate was sealed with aluminium foil and incubated at 37 ± 1 °C with an agitation at 350 rpm on an orbital shaker (Randox PHMP, Grant Instruments Ltd, Shepreth, Cambridgeshire, England) for 4 hours. After incubation, a matrix-matching procedure was performed: 10 µL of each post-dialysis sample was mixed with an equal volume of PBS, while 10 µL of each buffer sample was mixed with the corresponding blank plasma or brain homogenate. Prior to analysis, 20 µL of the mixed plasma or brain homogenate samples were precipitated with 80 µL of acetonitrile containing an internal standard.

On the set-up of data set [7]: method as in supplement 9. The settings on record: rat; 15 % (w:v) DMSO (660 mg/kg) in 0.5 % MC p.o.; ref supplement 9; cited from earlier work.
For a further data set, the system named is mice. The arrangement: method as in supplement 4. The settings on record: p.o., ref supplement 4; cited from earlier work.

Consider 6 compounds from paper PMC12202309 (International Journal of Neuropsychopharmacology, 2025).

Molecules are shown by their SMILES. Values joined by “and” are separate entries in the source; they are usually repeats but may differ in a detail not shown here. Equal entries are not always repeated.

As a reminder, the clearance is the rate of elimination divided by the concentration. A low value points to inefficient removal. For orientation: fraction unbound means the share of the substance not bound to proteins or other matrix. One may read the pKa as the pH at which an ionisable group is half protonated. One may read the AUC(0-t) as exposure summed from dosing to a finite time, without extrapolation to infinity. Lower therefore signals low exposure. For the compound `Cc1cc2c(s1)Nc1ccccc1N=C2N1CCNCC1` [DMO, 4’-N-desmethylolanzapine], the clearance in data set [1] (C57BL/6N, mouse, plasma) was 10.3 mL/min/kg. In addition, the fraction unbound at 4 h in data set [2] (pH 7.4, LPS mice) is 0.083. In data set [2] (pH 7.4, control mice), this compound registered a fraction unbound at 4 h of 0.13. Also, the pKa in [3] is on record as 8.8. The “increase of mean plasma AUC24h, LPS mice vs controls” value in “in vivo” (C57BL/6N, mouse, in vivo, 4 mg/kg) stood at 2.6 fold. Also, the “increase of plasma AUC in LPS mice” value in the data set “in vivo” (C57BL/6N, mouse, in vivo, po) was determined as 140%. In the data set “in vivo” (C57BL/6N, mouse, iv, 0.5 mg/kg, Controls, 0.5 mg/kg IV DMO, t = 6 hours), this compound gave an area under the curve AUC(0-t) of 562 ng·h/mL. The same compound registered an AUC(0-t) in the data set “in vivo” (C57BL/6N, mouse, iv, 0.5 mg/kg, Controls, 0.5 mg/kg IV olanzapine, t = 6 hours) of 28.7 ng·h/mL. This compound displayed an AUC(0-t) in the data set “in vivo” (C57BL/6N, mouse, iv, 0.5 mg/kg, LPS mice, 0.5 mg/kg IV DMO, t = 6 hours) of 1690 ng·h/mL. The compound further displayed an AUC(0-t) in the data set “in vivo” (C57BL/6N, mouse, iv, 0.5 mg/kg, LPS mice, 0.5 mg/kg IV olanzapine, t = 6 hours) of 57.6 ng·h/mL. Further, in “in vivo” (C57BL/6N, mouse, po, 4 mg/kg, Controls, 4 mg/kg PO olanzapine, t = 24 hours), the AUC(0-t) was 408 ng·h/mL. In the data set “in vivo” (C57BL/6N, mouse, po, 4 mg/kg, LPS mice, 4 mg/kg PO olanzapine, t = 24 hours), this compound showed an AUC(0-t) of 1070 ng·h/mL. In data set [4], the Q is 2.51 (30%) L·hour^−1.kg^-1, the V1 is given as 1.6 (14%) L.kg^-1, the V2 is recorded as 1.49 (14%) L.kg^-1 and the “decrease in the plasma clearance of DMO in LPS mice” value worked out at 4.8 fold. Also, in [4], the βCL_LPS is -1.54 (21%); the βV1_LPS is on record as -1.2 (15%); the βV2_LPS is on record as -0.56 (38%); the “ωCL, percent interindividual variability” value was 54 (34%). Also, in data set [4], the “ωQ, percent interindividual variability” value is reported as 17 (90%); the “ωV1, percent interindividual variability” value is listed as 37 (18%); the “ωV2, percent interindividual variability” value is given as 13 (122%). Also, in data set [4] (iv), the “decrease of median V1 by LPS in comparison to controls” value was determined as 70% and the “decrease of median V2 by LPS in comparison to controls” value came out at 43%. In data set [5] (intravenous, abstract, LPS and control mice), this compound displayed a Kp uu of no more than 0.051. In [5] (iv, Controls, 0.5 mg/kg IV DMO), this compound showed a Kp of 0.077 and a Kp uu of 0.051. In data set [5] (iv, LPS mice, 0.5 mg/kg IV DMO), this compound came in with a Kp of 0.039 and a Kp uu of 0.042. Also, in [5] (Controls), the AUCt brain homogenate entry was “trace levels^b”. Moreover, the “brain homogenate levels after IV olanzapine” value in data set [5] (LPS animals and controls, IV olanzapine) is given as “neither the LPS animals nor the controls had any brain homogenate levels of DMO higher than the limits of detection”. Further, the “animals with brain homogenate concentration below the detection limit of 0.20 ng/g” value in data set [5] (LPS group) is 4 of 18. The AUCt brain homogenate result in data set [5] (LPS mice) was “trace levels^b”. Besides, the “animals with brain homogenate concentration below the detection limit of 0.20 ng/g” value in [5] (control group) is reported as 5 of the 18. In data set [6] (pH 7.4, LPS mice), the fraction unbound at 4 h turned out to be 0.088. The fraction unbound at 4 h in data set [6] (pH 7.4, control mice) is 0.087.

As to `O=C1CCc2cc(OCCCCc3nnnn3C3CCCCC3)ccc2N1` [cilostazole], in data set [7], the “increase of AUC for plasma cilostazole by DMSO” value is listed as 32%.

Take `O=c1n(CCCN2CCN(c3cccc(Cl)c3)CC2)nc2ccccn12` [trazodone]: in [6], the fraction unbound at 4 h, 100 ng/mL is 0.078 to 0.118.

For `CN1CCN(C2=Nc3cc(Cl)ccc3Nc3ccccc32)CC1` [clozapine], the free fraction (fraction unbound) at 4 h, 100 ng/mL in data set [6] fell in the range of 0.014 to 0.021.

For orientation: CL/F means clearance divided by bioavailability, as obtained after extravascular dosing. For `Cc1cc2c(s1)Nc1ccccc1N=C2N1CCN(C)CC1` [olanzapine], the Fp.o. olanzapine in [1] (population median (%RSE), reference group controls) is given as 0.075 (12%). Besides, the “increase of mean plasma AUC24h, LPS mice vs controls” value in “in vivo” (4 mg/kg PO olanzapine) is on record as 3.8 fold. Further, the CL/F in the data set “in vivo” (mouse, in vivo, po, 4 mg/kg) was 552 mL/min/kg. Further, in [4], the Q is reported as 9.0 (31%) L·hour^−1.kg^-1, the V1 is listed as 4.1 (13%) L.kg^-1, the V2 is given as 3.5 (18%) L.kg^-1 and the “higher absolute bioavailability in LPS mice” value is listed as 200%. In addition, in [4], the βCL_LPS is reported as -0.43 (42%); the βF_LPS was 1.14 (14%); the “ωCL, percent interindividual variability” value is 24 (37%); the “ωF, percent interindividual variability” value is 16 (38%). In addition, in data set [4], the “ωQ, percent interindividual variability” value is recorded as 73 (49%); the “ωV1, percent interindividual variability” value was 45 (32%); the “ωV2, percent interindividual variability” value is reported as 83 (20%). The “brain AUC higher in LPS mice than controls” value in data set [5] (intravenous olanzapine 0.5 mg/kg) amounted to 1.8 fold. For the same compound, the “brain AUC higher in LPS mice than controls” value in [5] (oral olanzapine 4 mg/kg) is 5.2 fold and 5 fold.

In general, LD50 refers to the dose at which mortality reaches 50%. As to `C[S+](C)[O-]` [DMSO, dimethyl sulfoxide], in the data set on mice, the LD50 is 16500 to 24600 mg/kg.
